According to publication PMC10950972, “Relative bioavailability of fedratinib through various alternative oral administration methods in healthy adults” (Cancer Chemotherapy and Pharmacology, 2023):
Where two headings read alike, the source gives them in different places.

Test: Phase 1 relative bioavailability study part 2: plasma pharmacokinetics of fedratinib (3-period crossover)
Type: in vivo, human
Conditions: human, plasma, n = 30; for half-life: read-out: t½, mean (SD) (converted)
Description: Study part 2 was a 3-period, 6-sequence, open-label, crossover design (Fig. 1B). Treatment 2A (reference) consisted of fedratinib 400 mg (4 × 100-mg capsules) administered orally alongside a nutritional supplement. Treatment 2B (test) consisted of fedratinib 400 mg dispersed in the nutritional supplement (180 mL, Ensure Plus), administered via nasogastric tube, and flushed with 60 mL of sterile water. Treatment 2C (test) consisted of fedratinib 400 mg as a divided dose (2 × 100-mg capsules BID) administered alongside the nutritional supplement. Participants were randomized to receive treatment in one of the following sequences: 2A–2B–2C, 2A–2C–2B, 2B–2A–2C, 2B–2C–2A, 2C–2A–2B, or 2C–2B–2A. […] In the case of an evening (second) dose in the divided dosing plan of treatment 2C, participants were directed to pre-fast at least 2 h before fedratinib dose, and 4 h after fedratinib dose, with water restricted from approximately 2 h before and 1 h after dosing, excluding water given with the treatment.
Approximately 1 h before each fedratinib administration, ondansetron oral tablet (film coated) 8 mg was given orally to reduce the potential for fedratinib-related nausea and vomiting. There was a washout period of at least 12 days between each dose of fedratinib. The duration from screening through the follow-up phone call was approximately 10 weeks. Participants resided at the clinical site from days -1 to 23 (study part 1), or days -1 to 35 (study part 2). If a participant discontinued from the study for any reason, an early termination visit was performed, with only the safety assessments scheduled for the day of discharge taking place. Additionally, each participant who discontinued also received a follow-up phone call 4 (± 2) days after completion of the early termination visit.
For study part 1, and part 2 treatments 2A and 2B, blood samples were collected pre-dose (0 h) and at 0.5, 1, 1.5, 2, 3, 4, 6, 8, 12, 24, 48, 72, 120, 168, 192, and 240 h post-dose. For treatment 2C, blood samples were collected pre-dose (0 h) and at 0.5, 1, 1.5, 2, 3, 4, 6, 8, 12, 12.5, 13, 13.5, 14, 15, 16, 18, 24, 48, 72, 120, 168, 192, and 240 h post-dose of the first dose. The plasma concentration of fedratinib was measured using a validated liquid chromatography-tandem mass spectrometry assay with a lower limit of quantification of 1.00 ng/mL [12, 20].
Plasma PK parameters were calculated using noncompartmental methods by a validated PK analysis program (Phoenix® WinNonlin®, v8.3.4 [Certara USA, Inc., Princeton, NJ, USA]) using actual times. The PK parameters determined for fedratinib Cmax, Tmax, AUC from time 0 to the time of the last quantifiable concentration (AUC0–t), AUC from time 0 to infinity (AUC0–∞), and t½. Additionally for treatment 2C, Cmax and Tmax were estimated after both the first dose (Cmax and Tmax) and the second dose (Cmax2 and Tmax2). AUC0–t and AUC0–∞ were estimated from time 0 (the first dose) through 240 h after the first dose. AUC parameters were calculated using the linear-log trapezoidal method.
The sample size for this study was based on consideration of the precision in the comparison of PK parameters, represented by the 90% confidence interval (CI) of the geometric mean ratios of Cmax and AUC of fedratinib. […] Only participants with valid PK data were included in the summary statistics and statistical analysis.
To compare the PK parameters and estimated relative bioavailability of fedratinib following different administration methods in each study part (treatment 1B to 1A, and treatment 2B and 2C to 2A), a linear mixed-effect model with treatment, period, and sequence as fixed effects and participant nested within sequence as a random effect was fitted to the natural log-transformed PK parameters (Cmax, AUC0–t, and AUC0–∞) for use in estimation of effects and construction of CIs. […]

`Cc1cnc(Nc2ccc(OCCN3CCCC3)cc2)nc1Nc1cccc(S(=O)(=O)NC(C)(C)C)c1` [fedratinib] gave a Tmax (oral, 400 mg, Treatment 2C: 400 mg divided dose (2 × 100-mg capsules BID), after first dose, read-out: Tmax, median (statistical analysis)) of 2.26 h, an AUC(0-t) (oral, 400 mg, Treatment 2C: 400 mg divided dose (2 × 100-mg capsules BID), read-out: AUC0–t, geometric mean (statistical analysis)) of 18900 ng·h/mL and an AUC(0-inf) (oral, 400 mg, Treatment 2C: 400 mg divided dose (2 × 100-mg capsules BID), read-out: AUC0–∞, geometric mean (statistical analysis)) of 21300 ng·h/mL. It also gave an AUC(0-t) (other: nasogastric tube, 400 mg, Treatment 2B: single 400 mg via nasogastric tube, capsule contents dispersed in nutritional supplement, read-out: AUC0–t, geometric mean (Geo. %CV)) of 19200 ng·h/mL, an AUC(0-inf) (other: nasogastric tube, 400 mg, Treatment 2B: single 400 mg via nasogastric tube, capsule contents dispersed in nutritional supplement, read-out: AUC0–∞, geometric mean (Geo. %CV)) of 21600 ng·h/mL and a Cmax (other: nasogastric tube, 400 mg, Treatment 2B: single 400 mg via nasogastric tube, capsule contents dispersed in nutritional supplement, read-out: Cmax, geometric mean (Geo. %CV)) of 1250 ng/mL. For the same compound, the Tmax (other: nasogastric tube, 400 mg, Treatment 2B: single 400 mg via nasogastric tube, capsule contents dispersed in nutritional supplement, read-out: Tmax, median (range)) was 1.9 h, the half-life (other: nasogastric tube, 400 mg, Treatment 2B: single 400 mg via nasogastric tube, capsule contents dispersed in nutritional supplement) was 106 h and the AUC(0-t) (other: nasogastric tube, 400 mg, Treatment 2B: single 400 mg via nasogastric tube, dispersed in nutritional supplement, read-out: AUC0–t, geometric mean (statistical analysis)) was 19200 ng·h/mL. For the same compound, the AUC(0-inf) (other: nasogastric tube, 400 mg, Treatment 2B: single 400 mg via nasogastric tube, dispersed in nutritional supplement, read-out: AUC0–∞, geometric mean (statistical analysis)) was 21600 ng·h/mL, the Cmax (other: nasogastric tube, 400 mg, Treatment 2B: single 400 mg via nasogastric tube, dispersed in nutritional supplement, read-out: Cmax, geometric mean (statistical analysis)) was 1250 ng/mL and the Tmax (other: nasogastric tube, 400 mg, Treatment 2B: single 400 mg via nasogastric tube, dispersed in nutritional supplement, read-out: Tmax, median (statistical analysis)) was 1.87 h. It also gave an AUC(0-t) (po, 400 mg, Treatment 2A: single 400 mg oral, 4 × 100-mg intact capsules with nutritional supplement, read-out: AUC0–t, geometric mean (Geo. %CV)) of 22600 ng·h/mL, an AUC(0-inf) (po, 400 mg, Treatment 2A: single 400 mg oral, 4 × 100-mg intact capsules with nutritional supplement, read-out: AUC0–∞, geometric mean (Geo. %CV)) of 25000 ng·h/mL and a Cmax (po, 400 mg, Treatment 2A: single 400 mg oral, 4 × 100-mg intact capsules with nutritional supplement, read-out: Cmax, geometric mean (Geo. %CV)) of 1390 ng/mL. The Tmax (po, 400 mg, Treatment 2A: single 400 mg oral, 4 × 100-mg intact capsules with nutritional supplement, read-out: Tmax, median (range)) was 2.9 h, the half-life (po, 400 mg, Treatment 2A: single 400 mg oral, 4 × 100-mg intact capsules with nutritional supplement) was 96.8 h and the AUC(0-t) (po, 400 mg, Treatment 2A: single 400 mg oral, intact capsules with nutritional supplement, read-out: AUC0–t, geometric mean (statistical analysis)) was 22600 ng·h/mL. For the same compound, the AUC(0-inf) (po, 400 mg, Treatment 2A: single 400 mg oral, intact capsules with nutritional supplement, read-out: AUC0–∞, geometric mean (statistical analysis)) was 25000 ng·h/mL, the Cmax (po, 400 mg, Treatment 2A: single 400 mg oral, intact capsules with nutritional supplement, read-out: Cmax, geometric mean (statistical analysis)) was 1390 ng/mL and the Tmax (po, 400 mg, Treatment 2A: single 400 mg oral, intact capsules with nutritional supplement, read-out: Tmax, median (statistical analysis)) was 2.67 h. For the same compound, the Cmax (po, 400 mg, Treatment 2C: 400 mg oral divided dose (2 × 100-mg capsules BID) with nutritional supplement, after the first dose, read-out: Cmax, geometric mean (Geo. %CV)) was 641 ng/mL, the Tmax (po, 400 mg, Treatment 2C: 400 mg oral divided dose (2 × 100-mg capsules BID) with nutritional supplement, after the first dose, read-out: Tmax, median (range)) was 1.9 h and the half-life (po, 400 mg, Treatment 2C: 400 mg oral divided dose (2 × 100-mg capsules BID) with nutritional supplement, after the second dose) was 96.7 h. The AUC(0-t) (Treatment 2C: 400 mg oral divided dose (2 × 100-mg capsules BID) with nutritional supplement, from time 0 (first dose) through 240 h, read-out: AUC0–t, geometric mean (Geo. %CV)) was 18900 ng·h/mL and the AUC(0-inf) (Treatment 2C: 400 mg oral divided dose (2 × 100-mg capsules BID) with nutritional supplement, from time 0 (first dose), read-out: AUC0–∞, geometric mean (Geo. %CV)) was 21300 ng·h/mL.
